Test results from patent publication US9669003B2, “Use of flavone and flavanone derivatives in preparation of sedative and hypnotic drugs” (priority 2012, dated 2017).
Marks after values point to notes of the source that are not given here.

Each compound was assayed on Kunming mice (assay: Influence on hypnosis effect with pentobarbital sodium doses at the threshold (50 mg/kg i.p.)). Details: 25 mg/kg intragastric single dose, pentobarbital sodium 50 mg/kg i.p. 60 min later, x ± s, n = 10.
Assay type: in vivo
Summary of the method: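 Pentobarbital sodium (0.3%, 50 mg/kg i.p.) injected 60 min after a single intragastric dose (25, 50, 100 mg/kg, 0.5% CMC-Na vehicle) in Kunming mice, 10 per group, sexes balanced. Onset and length of sleep (righting reflex lost over 1 min) analysed by ANOVA; sleeping incidence by χ2 test.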

SMILES | duration of sleep | time to sleep
N#Cc1cc(-c2cc(=O)c3c(N)cc(F)cc3o2)ccc1O [Example 37] | 30.27 ± 22.71 min | 4.99 ± 1.97 min
COc1ccc(-c2cc(=O)c3c(O)c(OC)c(OC)c(OC)c3o2)cc1OC [Example 11, 5-hydroxyl-6,7,8,3′,4′-penta methoxyl-flavone] | 47.25 ± 14.42 min | 3.42 ± 1.37 min
COc1ccc(-c2cc(=O)c3c(OC)c(OC)c(OC)c(OC)c3o2)cc1OC [Example 14, 5,6,7,8,3′,4′-hexamethoxyl-flavone] | 34.12 ± 28.26 min | 4.78 ± 1.81 min

Same assay, conditions: 50 mg/kg intragastric single dose, pentobarbital sodium 50 mg/kg i.p. 60 min later, x ± s, n = 10

SMILES | duration of sleep | time to sleep
N#Cc1cc(-c2cc(=O)c3c(N)cc(F)cc3o2)ccc1O [Example 37] | 40.03 ± 20.58 min | 3.98 ± 1.46 min
COc1ccc(-c2cc(=O)c3c(O)c(OC)c(OC)c(OC)c3o2)cc1OC [Example 11, 5-hydroxyl-6,7,8,3′,4′-penta methoxyl-flavone] | 63.75 ± 20.27 min | 3.13 ± 1.21 min
COc1ccc(-c2cc(=O)c3c(OC)c(OC)c(OC)c(OC)c3o2)cc1OC [Example 14, 5,6,7,8,3′,4′-hexamethoxyl-flavone] | 57.34 ± 19.33 min | 4.25 ± 1.55 min

Same assay, conditions: 100 mg/kg intragastric single dose, pentobarbital sodium 50 mg/kg i.p. 60 min later, x ± s, n = 10

SMILES | duration of sleep | time to sleep
N#Cc1cc(-c2cc(=O)c3c(N)cc(F)cc3o2)ccc1O [Example 37] | 57.51 ± 25.63 min | 3.88 ± 1.43 min
COc1ccc(-c2cc(=O)c3c(O)c(OC)c(OC)c(OC)c3o2)cc1OC [Example 11, 5-hydroxyl-6,7,8,3′,4′-penta methoxyl-flavone] | 78.54 ± 19.27 min | 2.13 ± 1.33 min
COc1ccc(-c2cc(=O)c3c(OC)c(OC)c(OC)c(OC)c3o2)cc1OC [Example 14, 5,6,7,8,3′,4′-hexamethoxyl-flavone] | 60.26 ± 32.36 min | 3.93 ± 1.57 min

The compounds below were run on Kunming mice (assay: Influence on hypnosis effect with pentobarbital sodium doses below the threshold (25 mg/kg i.p.)). Details: test drug 25 mg/kg intragastric single dose, pentobarbital sodium 25 mg/kg i.p. 60 min later, sleep observed in 30 min, n = 10.
Assay type: in vivo
Summary of the method: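 Percentage of mice sleeping within 30 min after subthreshold pentobarbital sodium (25 mg/kg i.p.), defined by loss of righting reflex over 1 min, analysed by χ2. Compound in 0.5% CMC-Na given intragastrically at 25/50/100 mg/kg 60 min before; groups of 10 Kunming mice, both sexes.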

SMILES | Number of sleeping animals | rate of sleeping (%)
N#Cc1cc(-c2cc(=O)c3c(N)cc(F)cc3o2)ccc1O [Example 37] | 3 | 30%
COc1ccc(-c2cc(=O)c3c(O)c(OC)c(OC)c(OC)c3o2)cc1OC [Example 11, 5-hydroxyl-6,7,8,3′,4′-penta methoxyl-flavone] | 5 | 50** %
COc1ccc(-c2cc(=O)c3c(OC)c(OC)c(OC)c(OC)c3o2)cc1OC [Example 14, 5,6,7,8,3′,4′-hexamethoxyl-flavone] | 4 | 40* %

Same assay, conditions: test drug 50 mg/kg intragastric single dose, pentobarbital sodium 25 mg/kg i.p. 60 min later, sleep observed in 30 min, n = 10

SMILES | Number of sleeping animals | rate of sleeping (%)
N#Cc1cc(-c2cc(=O)c3c(N)cc(F)cc3o2)ccc1O [Example 37] | 6 | 60** %
COc1ccc(-c2cc(=O)c3c(O)c(OC)c(OC)c(OC)c3o2)cc1OC [Example 11, 5-hydroxyl-6,7,8,3′,4′-penta methoxyl-flavone] | 6 | 60** %
COc1ccc(-c2cc(=O)c3c(OC)c(OC)c(OC)c(OC)c3o2)cc1OC [Example 14, 5,6,7,8,3′,4′-hexamethoxyl-flavone] | 6 | 60** %

Same assay, conditions: test drug 100 mg/kg intragastric single dose, pentobarbital sodium 25 mg/kg i.p. 60 min later, sleep observed in 30 min, n = 10

SMILES | Number of sleeping animals | rate of sleeping (%)
N#Cc1cc(-c2cc(=O)c3c(N)cc(F)cc3o2)ccc1O [Example 37] | 7 | 70** %
COc1ccc(-c2cc(=O)c3c(O)c(OC)c(OC)c(OC)c3o2)cc1OC [Example 11, 5-hydroxyl-6,7,8,3′,4′-penta methoxyl-flavone] | 8 | 80*** %
COc1ccc(-c2cc(=O)c3c(OC)c(OC)c(OC)c(OC)c3o2)cc1OC [Example 14, 5,6,7,8,3′,4′-hexamethoxyl-flavone] | 7 | 70** %

These compounds were tested on Kunming mice (assay: Influence on autonomic activity of normal mice (ZIL-2 mice autonomic activity meter, counts within 10 min)). Details: intragastric, 25 mg/kg, 1 h after administration, x ± s, n = 10.
Assay type: in vivo
Summary of the method: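 Activity counts during a 10-min window were taken at 1, 2 and 24 h after dosing in groups of 10 mixed-sex Kunming mice. Compounds were given in 0.5% CMC-Na at 25, 50 or 100 mg/kg. Statistics used Levene's homogeneity test, ANOVA and Dunnett's multiple comparisons.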

SMILES | Times of activities in 1 h after drug administration/10 min
N#Cc1cc(-c2cc(=O)c3c(N)cc(F)cc3o2)ccc1O [Example 37] | 321.4 ± 62.4 /10 min
COc1ccc(-c2cc(=O)c3c(O)c(OC)c(OC)c(OC)c3o2)cc1OC [Example 11, 5-hydroxyl-6,7,8,3′,4′-penta methoxyl-flavone] | 243.1 ± 53.5 /10 min
COc1ccc(-c2cc(=O)c3c(OC)c(OC)c(OC)c(OC)c3o2)cc1OC [Example 14, 5,6,7,8,3′,4′-hexamethoxyl-flavone] | 289.9 ± 42.3 /10 min

Same assay, conditions: intragastric, 25 mg/kg, 2 h after administration, x ± s, n = 10

SMILES | Times of activities in 2 h after drug administration/10 min
N#Cc1cc(-c2cc(=O)c3c(N)cc(F)cc3o2)ccc1O [Example 37] | 288.0 ± 38.9 /10 min
COc1ccc(-c2cc(=O)c3c(O)c(OC)c(OC)c(OC)c3o2)cc1OC [Example 11, 5-hydroxyl-6,7,8,3′,4′-penta methoxyl-flavone] | 237.3 ± 45.3 /10 min
COc1ccc(-c2cc(=O)c3c(OC)c(OC)c(OC)c(OC)c3o2)cc1OC [Example 14, 5,6,7,8,3′,4′-hexamethoxyl-flavone] | 281.1 ± 41.6 /10 min

Same assay, conditions: intragastric, 25 mg/kg, 24 h after administration, x ± s, n = 10

SMILES | Times of activities in 24 h after drug administration/10 min
N#Cc1cc(-c2cc(=O)c3c(N)cc(F)cc3o2)ccc1O [Example 37] | 335.3 ± 65.2 /10 min
COc1ccc(-c2cc(=O)c3c(O)c(OC)c(OC)c(OC)c3o2)cc1OC [Example 11, 5-hydroxyl-6,7,8,3′,4′-penta methoxyl-flavone] | 291.7 ± 72.5 /10 min
COc1ccc(-c2cc(=O)c3c(OC)c(OC)c(OC)c(OC)c3o2)cc1OC [Example 14, 5,6,7,8,3′,4′-hexamethoxyl-flavone] | 313.2 ± 74.4 /10 min

Same assay, conditions: intragastric, 50 mg/kg, 1 h after administration, x ± s, n = 10

SMILES | Times of activities in 1 h after drug administration/10 min
N#Cc1cc(-c2cc(=O)c3c(N)cc(F)cc3o2)ccc1O [Example 37] | 279.7 ± 46.3 /10 min
COc1ccc(-c2cc(=O)c3c(O)c(OC)c(OC)c(OC)c3o2)cc1OC [Example 11, 5-hydroxyl-6,7,8,3′,4′-penta methoxyl-flavone] | 187.2 ± 41.4 /10 min
COc1ccc(-c2cc(=O)c3c(OC)c(OC)c(OC)c(OC)c3o2)cc1OC [Example 14, 5,6,7,8,3′,4′-hexamethoxyl-flavone] | 178.6 ± 40.2 /10 min

Same assay, conditions: intragastric, 50 mg/kg, 2 h after administration, x ± s, n = 10

SMILES | Times of activities in 2 h after drug administration/10 min
N#Cc1cc(-c2cc(=O)c3c(N)cc(F)cc3o2)ccc1O [Example 37] | 259.5 ± 46.5 /10 min
COc1ccc(-c2cc(=O)c3c(O)c(OC)c(OC)c(OC)c3o2)cc1OC [Example 11, 5-hydroxyl-6,7,8,3′,4′-penta methoxyl-flavone] | 179.7 ± 46.0 /10 min
COc1ccc(-c2cc(=O)c3c(OC)c(OC)c(OC)c(OC)c3o2)cc1OC [Example 14, 5,6,7,8,3′,4′-hexamethoxyl-flavone] | 183.3 ± 51.3 /10 min

Same assay, conditions: intragastric, 50 mg/kg, 24 h after administration, x ± s, n = 10

SMILES | Times of activities in 24 h after drug administration/10 min
N#Cc1cc(-c2cc(=O)c3c(N)cc(F)cc3o2)ccc1O [Example 37] | 333.8 ± 87.8 /10 min
COc1ccc(-c2cc(=O)c3c(O)c(OC)c(OC)c(OC)c3o2)cc1OC [Example 11, 5-hydroxyl-6,7,8,3′,4′-penta methoxyl-flavone] | 287.8 ± 89.1 /10 min
COc1ccc(-c2cc(=O)c3c(OC)c(OC)c(OC)c(OC)c3o2)cc1OC [Example 14, 5,6,7,8,3′,4′-hexamethoxyl-flavone] | 324.7 ± 79.6 /10 min

Same assay, conditions: intragastric, 100 mg/kg, 1 h after administration, x ± s, n = 10

SMILES | Times of activities in 1 h after drug administration/10 min
N#Cc1cc(-c2cc(=O)c3c(N)cc(F)cc3o2)ccc1O [Example 37] | 277.3 ± 45.7 /10 min
COc1ccc(-c2cc(=O)c3c(O)c(OC)c(OC)c(OC)c3o2)cc1OC [Example 11, 5-hydroxyl-6,7,8,3′,4′-penta methoxyl-flavone] | 115.9 ± 48.5 /10 min
COc1ccc(-c2cc(=O)c3c(OC)c(OC)c(OC)c(OC)c3o2)cc1OC [Example 14, 5,6,7,8,3′,4′-hexamethoxyl-flavone] | 159.1 ± 48.1 /10 min

Same assay, conditions: intragastric, 100 mg/kg, 2 h after administration, x ± s, n = 10

SMILES | Times of activities in 2 h after drug administration/10 min
N#Cc1cc(-c2cc(=O)c3c(N)cc(F)cc3o2)ccc1O [Example 37] | 222.8 ± 43.2 /10 min
COc1ccc(-c2cc(=O)c3c(O)c(OC)c(OC)c(OC)c3o2)cc1OC [Example 11, 5-hydroxyl-6,7,8,3′,4′-penta methoxyl-flavone] | 126.7 ± 48.7 /10 min
COc1ccc(-c2cc(=O)c3c(OC)c(OC)c(OC)c(OC)c3o2)cc1OC [Example 14, 5,6,7,8,3′,4′-hexamethoxyl-flavone] | 133.9 ± 49.7 /10 min

Same assay, conditions: intragastric, 100 mg/kg, 24 h after administration, x ± s, n = 10

SMILES | Times of activities in 24 h after drug administration/10 min
N#Cc1cc(-c2cc(=O)c3c(N)cc(F)cc3o2)ccc1O [Example 37] | 317.8 ± 62.3 /10 min
COc1ccc(-c2cc(=O)c3c(O)c(OC)c(OC)c(OC)c3o2)cc1OC [Example 11, 5-hydroxyl-6,7,8,3′,4′-penta methoxyl-flavone] | 315.2 ± 75.4 /10 min
COc1ccc(-c2cc(=O)c3c(OC)c(OC)c(OC)c(OC)c3o2)cc1OC [Example 14, 5,6,7,8,3′,4′-hexamethoxyl-flavone] | 322.6 ± 61.2 /10 min
